# Assay results: PubChem BioAssay (NCI)
#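 In this assay, cells in 96-well plates receive the compound at five concentrations for 48 hours. Endpoints are linearly interpolated between the surrounding concentrations. Definition used: TGI = concentration required for complete inhibition of growth.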
# How the values were obtained:
# Assay in all cases: NCI tumour cell line growth inhibition, 48 h
# [1] = system: 786-0 renal
# [2] = system: A498 renal
# [3] = system: A549 NSCLC
# [4] = system: ACHN renal
# [5] = system: BT-549 breast
# [6] = system: CAKI-1 renal
# [7] = system: CCRF-CEM leukemia
# [8] = system: COLO 205 colon
# [9] = system: DU-145 prostate
# [10] = system: EKVX NSCLC
# [11] = system: HCC-2998 colon
# [12] = system: HCT-116 colon
# [13] = system: HCT-15 colon
# [14] = system: HL-60(TB) leukemia
# [15] = system: HOP-62 NSCLC
# [16] = system: HOP-92 NSCLC
# [17] = system: HS 578T breast
# [18] = system: HT29 colon
# [19] = system: IGROV1 ovarian
# [20] = system: K-562 leukemia
# [21] = system: KM12 colon
# [22] = system: LOX IMVI melanoma
# [23] = system: M14 melanoma
# [24] = system: MALME-3M melanoma
# [25] = system: MCF7 breast
# [26] = system: MDA-MB-231 breast
# [27] = system: MDA-MB-435
# [28] = system: MDA-N
# [29] = system: MOLT-4 leukemia
# [30] = system: NCI-H226 lung
# [31] = system: NCI-H23 lung
# [32] = system: NCI-H460 lung
# [33] = system: NCI-H522 lung
# [34] = system: NCI/ADR-RES ovarian
# [35] = system: OVCAR-3 ovarian
# [36] = system: OVCAR-4 ovarian
# [37] = system: OVCAR-5 ovarian
# [38] = system: OVCAR-8 ovarian
# [39] = system: PC-3 prostate
# [40] = system: RPMI-8226 leukemia
# [41] = system: RXF 393 renal
# [42] = system: SF-268 CNS
# [43] = system: SF-295 CNS
# [44] = system: SF-539 CNS
# [45] = system: SK-MEL-2 melanoma
# [46] = system: SK-MEL-28 melanoma
# [47] = system: SK-MEL-5 melanoma
# [48] = system: SK-OV-3 ovarian
# [49] = system: SN12C renal
# [50] = system: SNB-19 CNS
# [51] = system: SNB-75 CNS
# [52] = system: SR leukemia
# [53] = system: SW-620 colon
# [54] = system: T-47D breast
# [55] = system: TK-10 renal
# [56] = system: U251 CNS
# [57] = system: UACC-257 melanoma
# [58] = system: UACC-62 melanoma
# [59] = system: UO-31 renal
compound,measurement,setting,value
N#CC12CC3=C(N=C1NC1=C(CCc4ccccc41)C2)c1ccccc1CC3 (configuration not stated),TGI,[1],43.8 µM
same,TGI,[2],7.97 µM
same,TGI,[3],> 100 µM
same,TGI,[4],> 100 µM
same,TGI,[5],65.3 µM
same,TGI,[6],77.2 µM
same,TGI,[7],3.38 µM
same,TGI,[8],5.55 µM
same,TGI,[9],> 85.1 µM
same,TGI,[10],> 100 µM
same,TGI,[11],4.35 µM
same,TGI,[12],21.7 µM
same,TGI,[13],51 µM
same,TGI,[14],1.15 µM
same,TGI,[15],53 µM
same,TGI,[16],41.4 µM
same,TGI,[17],> 34.5 µM
same,TGI,[18],6.52 µM
same,TGI,[19],> 40.3 µM
same,TGI,[20],1.36 µM
same,TGI,[21],20.4 µM
same,TGI,[22],13.9 µM
same,TGI,[23],17.6 µM
same,TGI,[24],37.1 µM
same,TGI,[25],> 38.3 µM
same,TGI,[26],> 57.5 µM
same,TGI,[27],0.923 µM
same,TGI,[28],0.809 µM
same,TGI,[29],7 µM
same,TGI,[30],29.7 µM
same,TGI,[31],39.2 µM
same,TGI,[32],> 100 µM
same,TGI,[33],6.47 µM
same,TGI,[34],29.5 µM
same,TGI,[35],8.13 µM
same,TGI,[36],> 78.6 µM
same,TGI,[37],> 100 µM
same,TGI,[38],15.7 µM
same,TGI,[39],> 54.5 µM
same,TGI,[40],4.15 µM
same,TGI,[41],> 100 µM
same,TGI,[42],> 86.4 µM
same,TGI,[43],12 µM
same,TGI,[44],7.22 µM
same,TGI,[45],23.6 µM
same,TGI,[46],44.3 µM
same,TGI,[47],> 35.5 µM
same,TGI,[48],27.6 µM
same,TGI,[49],> 81.9 µM
same,TGI,[50],73.5 µM
same,TGI,[51],11 µM
same,TGI,[52],0.694 µM
same,TGI,[53],> 42.4 µM
same,TGI,[54],> 96 µM
same,TGI,[55],65.8 µM
same,TGI,[56],17.1 µM
same,TGI,[57],> 84.4 µM
same,TGI,[58],42.6 µM
same,TGI,[59],35.1 µM
OC1c2c(ccc3c2CCC3)CC12Cc1ccccc1C2 (configuration not stated),TGI,[1],30.9 µM
same,TGI,[2],30.2 µM
same,TGI,[3],34.5 µM
same,TGI,[4],32.7 µM
same,TGI,[5],31.6 µM
same,TGI,[6],33.4 µM
same,TGI,[7],83.1 µM
same,TGI,[8],31.9 µM
same,TGI,[9],31.2 µM
same,TGI,[10],31.4 µM
same,TGI,[11],27.5 µM
same,TGI,[12],29.7 µM
same,TGI,[13],30.2 µM
same,TGI,[14],44.7 µM
same,TGI,[15],30.1 µM
same,TGI,[16],25.8 µM
same,TGI,[17],35.5 µM
same,TGI,[18],31.3 µM
same,TGI,[19],47.5 µM
same,TGI,[20],54.9 µM
same,TGI,[21],29.7 µM
same,TGI,[22],29.4 µM
same,TGI,[23],28.8 µM
same,TGI,[24],25.2 µM
same,TGI,[25],32.8 µM
same,TGI,[26],29.4 µM
same,TGI,[27],29.5 µM
same,TGI,[28],28.8 µM
same,TGI,[29],> 100 µM
same,TGI,[30],26.6 µM
same,TGI,[31],30.9 µM
same,TGI,[32],33 µM
same,TGI,[33],30.3 µM
same,TGI,[34],35.4 µM
same,TGI,[35],26.5 µM
same,TGI,[36],38.3 µM
same,TGI,[37],31.3 µM
same,TGI,[38],33.7 µM
same,TGI,[39],30.3 µM
same,TGI,[40],50.8 µM
same,TGI,[41],27.2 µM
same,TGI,[42],29.4 µM
same,TGI,[43],31.9 µM
same,TGI,[44],35.8 µM
same,TGI,[45],28.8 µM
same,TGI,[46],30.5 µM
same,TGI,[47],29.3 µM
same,TGI,[48],32.9 µM
same,TGI,[49],28.8 µM
same,TGI,[50],32.9 µM
same,TGI,[51],35.6 µM
same,TGI,[52],44.6 µM
same,TGI,[53],32.8 µM
same,TGI,[54],53.5 µM
same,TGI,[55],28 µM
same,TGI,[56],29.7 µM
same,TGI,[57],27.4 µM
same,TGI,[58],29.4 µM
same,TGI,[59],27.4 µM
O=C(O)CCc1ccc(-c2ccccc2)[nH]1,TGI,[1],> 100 µM
same,TGI,[2],> 100 µM
same,TGI,[3],> 100 µM
same,TGI,[4],> 100 µM
same,TGI,[5],> 100 µM
same,TGI,[6],> 100 µM
same,TGI,[7],> 100 µM
same,TGI,[8],> 100 µM
same,TGI,[9],> 100 µM
same,TGI,[10],> 100 µM
same,TGI,[11],> 100 µM
same,TGI,[12],> 100 µM
same,TGI,[13],> 100 µM
same,TGI,[14],> 100 µM
same,TGI,[15],> 100 µM
same,TGI,[16],> 100 µM
same,TGI,[17],> 100 µM
same,TGI,[18],> 100 µM
same,TGI,[19],> 100 µM
same,TGI,[20],> 100 µM
same,TGI,[21],> 100 µM
same,TGI,[22],> 100 µM
same,TGI,[23],> 100 µM
same,TGI,[24],> 100 µM
same,TGI,[25],> 100 µM
same,TGI,[26],> 100 µM
same,TGI,[27],> 100 µM
same,TGI,[28],> 100 µM
same,TGI,[29],> 100 µM
same,TGI,[30],> 100 µM
same,TGI,[31],> 100 µM
same,TGI,[32],> 100 µM
same,TGI,[33],> 100 µM
same,TGI,[34],> 100 µM
same,TGI,[35],> 100 µM
same,TGI,[36],> 100 µM
same,TGI,[37],> 100 µM
same,TGI,[38],> 100 µM
same,TGI,[39],> 100 µM
same,TGI,[40],> 100 µM
same,TGI,[41],> 100 µM
same,TGI,[42],> 100 µM
same,TGI,[43],> 100 µM
same,TGI,[44],> 100 µM
same,TGI,[45],> 100 µM
same,TGI,[46],> 100 µM
same,TGI,[47],> 100 µM
same,TGI,[48],> 100 µM
same,TGI,[49],> 100 µM
same,TGI,[50],> 100 µM
same,TGI,[51],> 100 µM
same,TGI,[52],> 100 µM
same,TGI,[53],> 100 µM
same,TGI,[54],> 100 µM
same,TGI,[55],> 100 µM
same,TGI,[56],> 100 µM
same,TGI,[57],> 100 µM
same,TGI,[58],> 100 µM
same,TGI,[59],> 100 µM
